Test results as given in the supplement of paper PMC10307832.

How the values were obtained:
Assay in all cases: relative viability (nuclei count vs DMSO), 5 days (fraction); higher = more cells survive
Dinaciclib = compound: CCc1cnn2c(NCc3ccc[n+]([O-])c3)cc(N3CCCC[C@H]3CCO)nc12 [Dinaciclib]
Procedure, shortened: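 In 1536-well plates, lung cancer cell lines rested overnight at 37 °C before five library-drug doses (not always all listed), √10 apart, were pinned onto vehicle-anchored plates. Nuclei were counted with MetaXpress from 4× Hoechst images taken after 5 days without medium change. Viability compares treated-well with vehicle-well nuclei as a median over plates, and plates needed control CV below 25% plus at least one doubling to pass.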

Dinaciclib + Olaparib = compound: CCc1cnn2c(NCc3ccc[n+]([O-])c3)cc(N3CCCC[C@H]3CCO)nc12 [Dinaciclib] + O=C(c1cc(Cc2n[nH]c(=O)c3ccccc23)ccc1F)N1CCN(C(=O)C2CC2)CC1 [Olaparib] (partner 8 µM)
Procedure, shortened: (§1)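 Cells from lung cancer lines were seeded into 1536-well plates and, one day later, dosed by pin tool. Treatments were either a single drug or a fixed dose of an anchor drug with five library-drug doses (not always all listed) in √10 steps. After 5 days, nuclei were stained in a one-step fixation (final 0.05% Triton X-100, 1% formaldehyde, 1 ug/ml Hoechst) and counted on 4× images, and relative viability is the treated-to-vehicle nuclei ratio, as the median of duplicate plates.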

Dinaciclib + Crizotinib = compound: CCc1cnn2c(NCc3ccc[n+]([O-])c3)cc(N3CCCC[C@H]3CCO)nc12 [Dinaciclib] + C[C@@H](Oc1cc(-c2cnn(C3CCNCC3)c2)cnc1N)c1c(Cl)ccc(F)c1Cl [Crizotinib] (partner 1 µM)
Procedure, shortened: as §1

Dinaciclib + Alpelisib = compound: CCc1cnn2c(NCc3ccc[n+]([O-])c3)cc(N3CCCC[C@H]3CCO)nc12 [Dinaciclib] + Cc1nc(NC(=O)N2CCC[C@H]2C(N)=O)sc1-c1ccnc(C(C)(C)C(F)(F)F)c1 [Alpelisib] (partner 2 µM)
Procedure, shortened: as §1

Dinaciclib + Dasatinib = compound: CCc1cnn2c(NCc3ccc[n+]([O-])c3)cc(N3CCCC[C@H]3CCO)nc12 [Dinaciclib] + Cc1nc(Nc2ncc(C(=O)Nc3c(C)cccc3Cl)s2)cc(N2CCN(CCO)CC2)n1 [Dasatinib] (partner 0.075 µM)
Procedure, shortened: as §1

Cell Line	relative viability (Dinaciclib; 0.009487 µM)	relative viability (Dinaciclib; 0.03 µM)	relative viability (Dinaciclib; 0.09487 µM)	relative viability (Dinaciclib; 0.3 µM)	relative viability (Dinaciclib + Olaparib; first compound 0.009487 µM)	relative viability (Dinaciclib + Olaparib; first compound 0.03 µM)	relative viability (Dinaciclib + Olaparib; first compound 0.09487 µM)	relative viability (Dinaciclib + Olaparib; first compound 0.3 µM)	relative viability (Dinaciclib + Crizotinib; first compound 0.009487 µM)	relative viability (Dinaciclib + Crizotinib; first compound 0.03 µM)	relative viability (Dinaciclib + Crizotinib; first compound 0.09487 µM)	relative viability (Dinaciclib + Crizotinib; first compound 0.3 µM)	relative viability (Dinaciclib + Alpelisib; first compound 0.009487 µM)	relative viability (Dinaciclib + Alpelisib; first compound 0.03 µM)	relative viability (Dinaciclib + Alpelisib; first compound 0.09487 µM)	relative viability (Dinaciclib + Alpelisib; first compound 0.3 µM)	relative viability (Dinaciclib + Dasatinib; first compound 0.009487 µM)	relative viability (Dinaciclib + Dasatinib; first compound 0.03 µM)	relative viability (Dinaciclib + Dasatinib; first compound 0.09487 µM)	relative viability (Dinaciclib + Dasatinib; first compound 0.3 µM)
NCI-H1437	0.894	0.227	0.17	0.154	0.418	0.159	0.138	0.158	0.918	0.41	0.0916	0.0807	0.87	0.182	0.0937	0.094	0.411	0.102	0.103	0.0897
NCI-H1651	0.969	0.764	0.186	0.0892	0.215	0.202	0.106	0.059	0.941	0.685	0.188	0.0849	0.865	0.613	0.108	0.0602	0.299	0.159	0.0523	0.0403
NCI-H1666	0.896	0.485	0.376	0.345	0.774	0.553	0.484	0.488	0.742	0.194	0.202	0.271	0.716	0.165	0.228	0.243	0.617	0.37	0.304	0.264
NCI-H1734	0.824	0.145	0.133	0.14	0.468	0.117	0.113	0.12	0.464	0.163	0.1	0.12	0.607	0.271	0.127	0.138	0.373	0.122	0.142	0.119
NCI-H1755	1.01	0.894	0.257	0.266	0.865	0.284	0.206	0.215	0.8	0.289	0.147	0.147	0.852	0.241	0.158	0.169	0.427	0.194	0.225	0.191
NCI-H1792	1.01	0.358	0.117	0.0792	0.425	0.185	0.0516	0.0374	0.994	0.747	0.184	0.0753	0.732	0.289	0.118	0.0656	0.823	0.631	0.439	0.183
NCI-H1915	0.69	0.202	0.159	0.12	0.202	0.108	0.112	0.0974	0.706	0.117	0.103	0.102	0.866	0.202	0.108	0.108	0.301	0.149	0.121	0.123
NCI-H1944	0.971	0.166	0.141	0.149	0.395	0.126	0.182	0.108	1.14	0.143	0.136	0.126	0.904	0.221	0.152	0.166	0.267	0.117	0.117	0.13
NCI-H1975	0.969	0.442	0.164	0.144	0.702	0.26	0.151	0.114	0.765	0.222	0.139	0.129	0.473	0.118	0.112	0.147	0.483	0.263	0.0967	0.0711
NCI-H1993	0.861	0.631	0.483	0.485	1.12	0.755	0.371	0.424	0.735	0.766	–	0.642	0.671	0.683	–	0.642	0.637	0.509	0.481	0.576
NCI-H2009	0.937	0.179	0.109	0.1	0.584	0.254	0.0848	0.0797	1.13	0.0796	0.0746	0.0749	0.923	0.151	0.102	0.0919	0.199	0.0887	0.072	0.0636
NCI-H2023	0.706	0.0772	0.0615	0.0696	0.29	0.0582	0.0542	0.0574	0.93	0.0702	0.05	0.0622	0.538	0.25	0.064	0.0614	0.393	0.0627	0.0546	0.0553
NCI-H2085	1.07	0.685	0.27	0.268	0.838	0.321	0.257	0.263	1.02	0.313	0.208	0.236	0.976	0.346	0.228	0.258	0.223	0.184	0.218	0.229
